# Assay results reported in US5464617A, “β-lactam compounds” (Hoffmann-La Roche Inc., priority 1994, dated 1995).
# Where a name gives a salt, the structure may show the parent alone.
# Legend:
# E. coli 1346 = assay: Antibacterial activity of the products per se, serial dilution method in liquid medium (Test E); assay type: cell-based; conditions: product per se; for MIC E. coli 1346: Table 3, liquid medium; for MIC E. coli 1346 (E): test E
# Text: The antibacterial activity of the products per se is illustrated on the basis of Table 3 hereinafter, the minimum inhibitory concentration […] in vitro against E. coli 1346 being determined using the serial dilution method in liquid medium: […]
# [1] = system: Citrobacter freundii 1982; assay: MIC in vitro of a 1:4 combination of ceftriaxone with a compound of formula I (Test D); assay type: cell-based; conditions: for MIC C. freundii 1982: Table 2; for MIC C. freundii 1982 (D): test D
# Description: The minimum inhibitory concentration in vitro ([…]) of a 1:4 combination of ceftriaxone with a compound of formula I against Citrobacter freundii 1982 was measured and compiled in Table 2 hereinafter.
# [2] = 1:4 combination of ceftriaxone with the compound
# [3] = Table 5, particularly preferred products
# [4] = Table 5, particularly preferred products, 1:4 combination with ceftriaxone
# [5] = Table 4, 1:4 combination of ceftriaxone with the compound
Structure (SMILES),MIC E. coli 1346 (E. coli 1346) [µg/mL],"MIC C. freundii 1982 [1, 2] [µg/mL]",MIC E. coli 1346 (E) (E. coli 1346; Table 4) [µg/mL],"MIC C. freundii 1982 (D) [1, 5] [µg/mL]",also measured
"CS(=O)(=O)OC1=C(C(=O)O)N2C(=O)[C@@H]3[C@H]2[C@H](C1)CN3C(=O)NCc1ccc(O)c(O)c1 [9(d), (1aS,3aR,6bR)-2-(3,4-Dihydroxy-benzylcarbamoyl)-5-methylsulphonyloxy-1-oxo-1a,2,3,3a,4,6b-hexahydro-1H-2,6a-diazacyclobut[cd]indene-6-carboxylic acid sodium salt]",32,2,–,–,–
"CS(=O)(=O)OC1=C(C(=O)O)N2C(=O)[C@@H]3[C@H]2[C@H](C1)CN3C(=O)NCc1ccc(S(N)(=O)=O)cc1 [9(h), (1aS,3aR,6bR)-5-Methylsulphonyloxy-1-oxo-2-(4-sulphamoylbenzylcarbamoyl)-1a,2,3,3a,4,6b-hexahydro-1H-2,6a-diazacyclobut[cd]indene-6-carboxylic acid sodium salt]",32,0.5,–,–,–
"Cc1ccc(S(=O)(=O)OC2=C(C(=O)O)N3C(=O)[C@@H]4[C@H]3[C@H](C2)CN4C(=O)Nc2ccc(O)cc2)cc1 [9(i), (1aS,3aR,6bR)-2-(4-Hydroxy-phenylcarbamoyl)-5-(4-methyl-phenylsulphonyloxy)-1-oxo-1a,2,3,3a,4,6b-hexahydro-1H-2,6a-diazacyclobut[cd]indene-6-carboxylic acid sodium salt]",16,2,–,–,–
"Cn1nnnc1SCC(=O)N1C[C@H]2CC(OS(C)(=O)=O)=C(C(=O)O)N3C(=O)[C@@H]1[C@@H]23 [11(b), (1aS,3aR,6bR)-5-Methylsulphonyloxy-2-(1-methyl-1H-tetrazol-5-ylsulphanylacetyl)-1-oxo-1a,2,3,3a,4,6b-hexahydro-1H-2,6a-diazacyclobut[cd]indene-6-carboxylic acid sodium salt]",16,0.5,–,–,–
"O=C(O)CC1=C(C(=O)O)N2C(=O)[C@@H]3[C@H]2[C@H](C1)CN3C(=O)Nc1ccc(O)cc1 [13(a), (1aS,3aR,6bR)-5-carboxymethyl-2-(4-hydroxy-phenycarbamoyl)-1-oxo-1a,2,3,3a,4,6b-hexahydro-1H-2,6a-diazacyclobut[cd]indene-6-carboxylic acid sodium salt]",4,1,–,–,–
"Cn1nnnc1SCC1=C(C(=O)O)N2C(=O)[C@@H]3[C@H]2[C@H](C1)CN3C(=O)Nc1ccc(O)cc1 [18(a), (1aS,3aR,6bR)-2-(4-Hydroxy-phenylcarbamoyl)-5-(1-methyl-1H-tetrazol-5-ylsulphanylmethyl)-1-oxo-1a,2,3,3a,4,6b-hexahydro-1H-2,6a-diazacyclobut[cd]indene-6-carboxylic acid sodium salt]",32,0.25,–,–,–
"Cn1nnnc1SCC1=C(C(=O)O)N2C(=O)[C@@H]3[C@H]2[C@H](C1)CN3C(=O)Nc1ccc(C(N)=O)cc1 [18(b), (1aS,3aR,6bR)-2-(4-Carbamoyl-phenylcarbamoyl)-5-(1-methyl-1H-tetrazol-5-ylsulphanylmethyl)-1-oxo-1a,2,3,3a,4,6b-hexahydro-1H-2,6a-diazacyclobut[cd]indene-6-carboxylic acid sodium salt]",32,0.25,–,–,–
"Cn1nnnc1SCC1=C(C(=O)O)N2C(=O)[C@@H]3[C@H]2[C@H](C1)CN3C(=O)N[C@H]1CCNC1=O [18(c), (1aS,3aR,6bR)-2-[(S)-2-Oxo-pyrrolidin-3-ylcarbamoyl)-5-(1-methyl-1H-tetrazol-5-ylsulphanylmethyl]-1-oxo-1a,2,3,3a,4,6b-hexahydro-1H-2,6a-diazacyclobut[cd]indene-6-carboxylic acid sodium salt]",32,0.25,–,–,–
"Nc1nnc(SCC2=C(C(=O)O)N3C(=O)[C@@H]4[C@H]3[C@H](C2)CN4C(=O)Nc2ccc(O)cc2)s1 [18(d), (1aS,3aR,6bR)-5-(5-Amino-1,3,4-thiadiazol-2-ylsulphanylmethyl)-2-(4-hydroxy-phenylcarbamoyl)-1-oxo-1a,2,3,3a,4,6b-hexahydro-1H-2,6a-diazacyclobut[cd]indene-6-carboxylic acid sodium salt]",–,–,–,–,"MIC E. coli 1346 (E) (E. coli 1346; [3]): 32 µg/mL; MIC C. freundii 1982 (D) [1, 4]: ≤ 0.06 µg/mL"
"NC(=O)c1ccc(NC(=O)N2C[C@H]3CC(CSc4ccncc4)=C(C(=O)O)N4C(=O)[C@@H]2[C@@H]34)cc1 [18(e), (1aS,3aR,6bR)-2-(4-Carbamoyl-phenylcarbamoyl)-1-oxo-5-(pyridin-4-ylsulphanylmethyl)-1a,2,3,3a,4,6b-hexahydro-1H-2,6a-diazacyclobut[cd]indene-6-carboxylic acid]",–,–,–,–,"MIC E. coli 1346 (E) (E. coli 1346; [3]): > 32 µg/mL; MIC C. freundii 1982 (D) [1, 4]: 0.12 µg/mL"
"Cn1nnnc1SCC1=C(C(=O)O)N2C(=O)[C@@H]3[C@H]2[C@H](C1)CN3C(=O)NCCC(=O)OC(C)(C)C [18(f), (1aS,3aR,6bR)-2-(2-t-Butoxycarbonyl-ethylcarbarmoyl)-5-(1-methyl-1H-tetrazol-5-ylsulphanylmethyl)-1-oxo-1a,2,3,3a,4,6b-hexahydro-1H-2,6a-diazacyclobut[cd]indene-6-carboxylic acid sodium salt]",–,–,4,1,–
"Cn1nnnc1SCC1=C(C(=O)O)N2C(=O)[C@@H]3[C@H]2[C@H](C1)CN3C(=O)NCc1ccc(O)cc1 [18(h), (1aS,3aR,6bR)-2-(4-Hydroxy-benzylcarbamoyl)-5-(1-methyl-1H-tetrazol-5-ylsulphanylmethyl)-1-oxo-1a,2,3,3a,4,6b-hexahydro-1H-2,6a-diazacyclobut[cd]indene-6-carboxylic acid sodium salt]",–,–,16,0.5,–
"O=C(O)C1=C(CSc2ccncc2)C[C@@H]2CN(C(=O)NCc3ccc(O)cc3)[C@@H]3C(=O)N1[C@H]23 [18(i), (1aS,3aR,6bR)-2-(4-Hydroxy-benzylcarbamoyl)-1-oxo-5-(pyridin-4-ylsulphanylmethyl)-1a,2,3,3a,4,6b-hexahydro-1H-2,6a-diazacyclobut[cd]indene-6-carboxylic add sodium salt]",–,–,32,4,–
"O=C(O)C1=C(CSc2ccncc2)C[C@@H]2CN(C(=O)Nc3ccc(O)cc3)[C@@H]3C(=O)N1[C@H]23 [18(j), (1aS,3aR,6bR)-2-(4-Hydroxy-phenylcarbamoyl)-1-oxo-5-(pyridin-4-ylsulphanylmethyl)-1a,2,3,3a,4,6b-hexahydro-1H-2,6a-diazacyclobut[cd]indene-6-carboxylic acid sodium salt]",–,–,> 32,0.5,–
"O=C(O)C1=C(CSc2ccncc2)C[C@@H]2CN(C(=O)C(F)(F)F)[C@@H]3C(=O)N1[C@H]23 [19(g), (1aS,3aR,6bR)-1-Oxo-5-(pyridin-4-ylsulphanylmethyl)-2-trifluoroacetyl-1a,2,3,3a,4,6b-hexahydro-1H-2,6a-diazacyclobut[cd]indene-6-carboxylic acid sodium salt]",–,–,–,–,"MIC E. coli 1346 (E) (E. coli 1346; [3]): 1 µg/mL; MIC C. freundii 1982 (D) [1, 4]: 1 µg/mL"
"Nc1nnc(SCC2=C(C(=O)O)N3C(=O)[C@@H]4[C@H]3[C@H](C2)CN4C(=O)C(F)(F)F)s1 [19(h), (1aS,3aR,6bR)-5-(5-Amino-1,3,4-thiadiazol-2-ylsulphanylmethyl)-1-oxo-2-trifluoroacetyl-1a,2,3,3a,4,6b-hexahydro-1H-2,6a-diaza-cyclobut[cd]indene-6-carboxylic acid sodium salt]",–,–,2,0.5,–
"CC(=O)N1C[C@H]2CC(CSc3nnc(N)s3)=C(C(=O)O)N3C(=O)[C@@H]1[C@@H]23 [19(i), (1aS,3aR,6bR)-2-Acetyl-5-(5-amino-1,3,4-thiadiazol-2-ylsulphanylmethyl)-1-oxo-1a,2,3,3a,4,6b-hexahydro-1H-2,6a-diazacyclobut[cd]indene-6-carboxylic acid sodium salt]",–,–,0.5,1,–
"CC(=O)Nc1nnc(SCC2=C(C(=O)O)N3C(=O)[C@@H]4[C@H]3[C@H](C2)CN4C(C)=O)s1 [19(j), (1aS,3aR,6bR)-2-Acetyl-5-(5-acetylamino-1,3,4-thiadiazol-2-ylsulphanylmethyl)-1-oxo-1a,2,3,3a,4,6b-hexahydro-1H-2,6a-diazacyclobut[cd]indene-6-carboxylic acid sodium salt]",–,–,0.5,2,–
"CC(C)(C)OC(=O)CCNC(=O)N1C[C@H]2CC(C[n+]3ccccc3)=C(C(=O)[O-])N3C(=O)[C@@H]1[C@@H]23 [23(f), (1aS,3aR,6bR)-2-(2-t-Butoxycarbonyl-ethylcarbamoyl)-1-oxo-5-(pyridin-1-yliomethyl)-1a,2,3,3a,4,6b-hexahydro-1H-2,6a-diazacyclobut[cd]indene-6-carboxylate]",–,–,> 32,4,–
"CC(=O)OCC1=C(C(=O)O)N2C(=O)[C@@H]3[C@H]2[C@H](C1)CN3C(=O)NCC(=O)OCc1ccccc1 [25(b), (1aS,3aR,6bR)-5-Acetoxymethyl-2-benzyloxycarbonylmethylcarbamoyl-1-oxo-1a,2,3,3a,4,6b-hexahydro-1H-2,6a-diazacyclobut[cd]indene-6-carboxylic acid sodium salt]",–,–,4,0.25,–
"CC(=O)OCC1=C(C(=O)O)N2C(=O)[C@@H]3[C@H]2[C@H](C1)CN3C(C)=O [25(c), (1aS,3aR,6bR)-5-Acetoxymethyl-2-acetyl-1-oxo-1a,2,3,3a,4,6b-hexahydro-1H-2,6a-diazacyclobut[cd]indene-6-carboxylic acid sodium salt]",–,–,4,1,–
